How the values were obtained:
[1] = human, mda-mb-231, 24 h
[2] = human, mda-mb-231, 2 h

## CC(=O)O[C@H]1C(=O)[C@@]2(C)[C@H]([C@H](OC(=O)c3ccccc3)[C@]3(O)C[C@H](OC(=O)[C@H](O)[C@@H](NC(=O)c4ccccc4)c4ccccc4)C(C)=C1C3(C)C)[C@]1(OC(C)=O)CO[C@@H]1C[C@@H]2O [PACLITAXEL]
[1]
  Drug uptake: Active
[2]
  Drug uptake: Active
